The values that follow are results of earlier work, collected in US12653912B2 (SHENZHEN CHINA RESOURCES JIUCHUANG MEDICAL AND …, priority 2020, dated 2026).

For the data set the following is noted: 75 mg/m^2, intravenous bolus injecting.

The structures appear in SMILES notation.

On to `O=C1c2c(O)ccc(O)c2C(=O)c2c(NCCNCCO)ccc(NCCNCCO)c21` [mitoxantrone], for which the “AUC at the maximum tolerated total dosage” value is 560 to 1700 ng·h/mL.

In general, AUC refers to the area under the concentration-time curve, a measure of exposure.
